From patent US20020164581A1 (priority 2001, published 2002)

How the values were obtained:
[1] = system: superoxide dismutase (SOD); test: SOD activity in cell lysate (epinephrine auto-oxidation); format: cell-based, bovine
Experimental: (§1) Cells pretreated with different concentrations of E2 for 24 hours were harvested in a solution containing 50 mM Tris-HCl (pH 7.4), 1 mM EDTA, 2 μg/ml pepstatin A, 10 μg/ml benzamidine, and 10 μg/ml trypsin inhibitor. The cells were then lysed on ice by sonication at a setting of 50 mW, with 3×15 set cycles using a Cole-Parmer Ultrasonic Homogenizer (Chicago, Ill.). Protein concentrations in the samples were determined by the Bradford method with bovine serum albumin as a standard (Bradford, Anal. Biochem. 72:248-254, 1976).
SOD activity was determined by a method based on the ability of SOD to suppress epinephrine auto-oxidation (Misra and Fridovich, J.Biol. Chem. 247:3170-3175, 1972). One unit of SOD activity is defined as the amount of protein that inhibits the oxidation of epinephrine by 50%. Briefly, 100 μl of 10×-diluted cell homogenate (about 10 μg protein) was added to 900 μl of carbonate buffer (0.1 M NaHCO3, 0.1 M Na2CO3, 0.1 mM EDTA, pH 10.2) containing 0.7 mM of epinephrine. The absorbency of the mixture was measured for 4 minutes at 480 nm using a Hitachi U-2000 spectrophotometer (Hitachi, San Jose, Calif.).

[2] = system: glutathione reductase (GR); test: GR activity in cell lysate (NADPH oxidation); format: cell-based, bovine
Experimental: as §1
GR activity was determined by a modified method of Carlberg and Mannervik (Methods Enzymol. 11 3:484-490, 1985). One unit of GR activity is defined as the amount of protein that oxidizes 1 nmole of β-NADPH per minute. Briefly, 50 μl of 2 mM β-NADPH in 10 mM Tris buffer (pH 7.0) was added to a cuvette containing 50 μl of 20 mM glutathione (oxidized ofrm, GSSG) in phosphate buffer (0.1 M NaH2PO4, 0.1 M Na2HPO4, 0.1 mM EDTA, pH 7.0) and 800 μl of phosphate buffer. Following the addition of cell homogenate (about 100 μg protein/100 μl) the final mixture was measured at 340 nm for 3 minutes. The molar extinction coefficient of 6.22 mM/cm was used to determine the activity of […].

[3] = system: bovine aortic endothelial cells (bAECs)
Experimental: Primary cultures of bAECs were established from five female beef cattle (ranging in age from 1 to 2 years old) according to the method of Fenselau and Mello (Cancer Res. 36:3269-3273, 1976). Pooled cells were routinely maintained under humidified air (5% CO2) at 37° C. in Dulbecco's modified medium supplemented with 10% fetal bovine serum (FBS). Cells from the second to the fifth passages were used in these studies.
In the studies in which male and female bAECs were compared, batches of bAECs were independently established from 5 female and 4 male beef cattle (ranging in age from 1 to 2 years old) according to the method of Fenselau and Mello (Cancer Res. 36:3269-3273, 1976). Otherwise, the cells were treated and assessed as described in the paragraph above.
(§2) Prior to E2 pretreatment, cells were grown in phenol red-free DMEM supplemented with 10% dextran/charcoal-stripped FBS for at least 1 passage (3-4 days). Phenol red-free Dulbecco's modified medium was used to avoid potential estrogenic interference. Serum steroid deprivation was conducted according to the conditions described by Yeh et al. (Proc. Natl. Acad. Sci. USA 95:5527-5532, 1998). The E2 level in the stripped serum was assayed using an [^125I] 17β-estradiol radioimmunoassay kit (TKE21, Diagnostic Products Corporation, Los Angeles, Calif.). […] The cells grown in E2-free environments were plated onto Falcon 24-well Primariae™ plates at a density of 5×10^4 cells/well. E2 in dimethylsulfoxide (DMSO) was added to each well at final concentrations ranging from 1 nM to 10 μM 3 hours after plating, and the cells were then incubated for 24 hours (a duration commonly used for the studies of the genomic effects of E2) at 37° C. Control cells were treated with a corresponding amount of DMSO (a final concentration 0.05%).
Prior to oxidative challenge, E2-containing media was removed, and the cells were rinsed with PBS twice and re-fed with serum-free fresh medium. Subsequently, paraquat was added to the cells at the indicated doses (0.1-2.0 mM) for 3 hours. The oxidative challenge was terminated by aspiration of the oxidant-containing medium and quickly rinsing the cells twice with PBS. The cells were allowed to recover for 48 hours in medium supplemented with 10% regular FBS to exclude the possibility that different concentrations of E2 interfere with the cellular recovery processes.
Cell survival after oxidative challenge was assessed with a 3-(4,5-dimethylthiazol-2-yl) 2,5 diphenyltetrazolium bromide (MTT) assay in which the mitochondrial dehydrogenase activity of viable cells reduces MTT to a blue formazan product (Carmichael et al. Cancer Res. 47:936-942, 1987). Our prior conditions were employed (Si et al., Endocrine in press, 2001). Briefly, cells were treated with 1/10 volume of MTT solution (5 mg/ml in PBS) and incubated at 37° C. for 2 hours. The supernatant was then removed, and 600 μl of lysis buffer (50% dimethyl formamide, 5% sodium dodecyl sulphate, 0.35 M acetic acid, 50 mM HCl) was added to each well. Following cell lysis, the absorbency was measured at 570 nm and used as an indicator of relative cell survival. The surviving fraction was calculated as compared to the cells without paraquat challenge.
Two experimental groups were created. In the first group, E2 was added only during the 24-hour pretreatment period. In the second group, E2 was added only during the 3-hour paraquat exposure.

[4] = system: cardiomyocytes; conditions: cited from earlier work
[5] = system: bovine aortic endothelial cells (bAECs); test: Lysophosphatidylcholine or homocysteine/Cu2+ challenge of E2-pretreated cells, cell survival; format: cell-based
Experimental: as §2, with “E2 in dimethylsulfoxide (DMSO) was added to each well at final concentrations ranging from 1 nM to 10 μM 3 hours after plating, and the cells were then incubated for 24 hours (a duration commonly used for the studies of the genomic effects of E2) at 37° C. Control cells were treated with a corresponding amount of DMSO (a final concentration 0.05%).” left out
Cell survival after oxidative challenge was assessed with a 3-(4,5-dimethylthiazol-2-yl) 2,5 diphenyltetrazolium bromide (MTT) assay in which the mitochondrial dehydrogenase activity of viable cells reduces MTT to a blue formazan product (Carmichael et al. Cancer Res. 47:936-942, 1987). […] Following cell lysis, the absorbency was measured at 570 nm and used as an indicator of relative cell survival. The surviving fraction was calculated as compared to the cells without paraquat challenge.

[6] = system: endothelial nitric oxide synthase; conditions: cited from earlier work
[7] = system: bovine aortic endothelial cells (bAECs); remark: listed apart in the source
Experimental: as §2
To study the difference between male and female cells in their response to E2, bAECs from male and female animals were treated with various concentrations of E2 for 24 hours and then challenged with paraquat (1,1′-dimethyl-4,4′-bipyridinium dichloride, methyl viologen). Paraquat was used because it generates the superoxide anion O2 in living cells. […] Accordingly, E2 ranging in concentration from 1 nM to 10 μM was used in these studies.

[8] = 1 nM E2 pretreatment (Example 8)
[9] = female bAECs, 24 h 1 nM E2 (Example 12)
[10] = 24 h pretreatment, paraquat challenge

C[C@]12CC[C@@H]3c4ccc(O)cc4CC[C@H]3[C@@H]1CC[C@@H]2O [E2, 17β-estradiol]
SOD activity elevation relative to untreated cells [1, 8]: approximately 4 fold
SOD activity increase [1, 9]: about 4 fold
GR activity elevation relative to untreated cells [2, 8]: ~3 fold
GR activity increase [2, 9]: ~2 fold
E2 dosage that defended cells when present during oxidative challenge [3]: 10 µM
oxidant protection with E2 present during paraquat exposure [3]: mild but notable oxidant protection
oxidative protection after brief preincubation [3]: not effective in providing oxidative protection
oxidative resistance (MTT survival) [3]: marked augmentation of oxidative resistance
protection against subsequent oxidative challenge [3]: acquired significant protection against subsequent oxidative challenge
resistance to paraquat toxicity (cell survival) [3]: enhanced resistance to the toxic effect of paraquat
E2 concentration of optimal protection [3, 10]: 1 to 10 nM
E2 dosage at which protection gradually declined in magnitude [3, 10]: about 1 μM
protection after brief estrogenic exposure ([3]; E2 30 minutes only, washed, male or female endothelial cells): No protection by E2
LD50 of paraquat toxicity in E2-pretreated cells ([3]; cells pretreated with 1 nM E2 for 24 h): about 1 mM
magnitude of protection at elevated E2 ([3]; female bAECs, E2 0.1-10 μM, P<0.05 vs. 1 nM): gradually decreased
protection against paraquat challenge ([3]; male bAECs, E2 pretreatment at any tested concentration): no protection was seen
effect on high K+-induced Ca++ loading or hypercontracture [4]: prevent high K+-induced intracellular Ca++ loading or hypercontracture
survival after homocysteine/Cu2+ challenge ([5]; homocysteine/Cu2+ 1 mM/25 μM, 3 hours): gained survival benefit
survival after lysophosphatidylcholine challenge ([5]; lysophosphatidylcholine 10 μg/ml, 60 min): gained survival benefit
optimal concentration of E2 for endothelial nitric oxide synthase induction [6]: 1 to 10 nM
E2 concentration that suppressed growth ([7]; both, bovine, 24 h): ≥ 100 µM
E2 concentration that significantly inhibited endothelial cell growth ([7]; female, bovine, 24 h): ≥ 100 µM
cell count without subsequent paraquat exposure ([7]; groups pretreated with various doses of E2, comparable among groups, average): 3.1×10^5 per well
